Among the data in the NIST ThermoML archive (doi:10.1016/j.tca.2004.12.026) are mass density and excess molar enthalpy values, retold here.

For data set [1] the following is noted: 298.15 K; 101.33 kPa; Liquid; Vibrating tube method.
Data set [2] in a line: excess molar enthalpy (molar enthalpy of mixing); xn = mol fraction of the nth substance listed. The note with it: 298.15 K, 101.33 kPa, Liquid, Flow calorimetry.

Numbers after ± are expanded uncertainties.

As to `COC(C)(C)C` [2-methoxy-2-methylpropane], the mass density in data set [1] turned out to be 735.69 ± 0.4 kg/m3.
`CCC(C)CC` [3-methylpentane]: in data set [1], the mass density is 660.3 ± 0.41 kg/m3.
On to `CCC(C)CC` [3-methylpentane] + COC(C)(C)C, for which the excess molar enthalpy was 0.0137 ± 0.000382 kcal/mol in data set [2] (x2 = 0.0499); 0.0259 ± 0.000502 kcal/mol in data set [2] (x2 = 0.0999); 0.0382 ± 0.000621 kcal/mol in data set [2] (x2 = 0.1501); 0.0482 ± 0.000717 kcal/mol in data set [2] (x2 = 0.2); 0.0559 ± 0.000789 kcal/mol in data set [2] (x2 = 0.2495); 0.0629 ± 0.00086 kcal/mol in data set [2] (x2 = 0.3004). Also, the excess molar enthalpy in data set [2] (x2 = 0.3502) is 0.0683 ± 0.000932 kcal/mol; in data set [2] (x2 = 0.3999), 0.072 ± 0.000956 kcal/mol; in data set [2] (x2 = 0.4505), 0.0745 ± 0.00098 kcal/mol; in data set [2] (x2 = 0.4997) it was 0.0752 ± 0.001 kcal/mol; in data set [2] (x2 = 0.55), 0.0741 ± 0.00098 kcal/mol; in data set [2] (x2 = 0.5996) it was 0.0717 ± 0.000956 kcal/mol. In addition, the excess molar enthalpy in data set [2] (x2 = 0.6502) turned out to be 0.0684 ± 0.000932 kcal/mol; in data set [2] (x2 = 0.7003), 0.063 ± 0.00086 kcal/mol; in data set [2] (x2 = 0.75), 0.0561 ± 0.000813 kcal/mol; in data set [2] (x2 = 0.7999), 0.0476 ± 0.000717 kcal/mol; in data set [2] (x2 = 0.8501), 0.0377 ± 0.000621 kcal/mol; in data set [2] (x2 = 0.8999), 0.0263 ± 0.000502 kcal/mol. For the same compound, the excess molar enthalpy in data set [2] (x2 = 0.95) was determined as 0.0128 ± 0.000359 kcal/mol.
As to `CCCCCCCCCC` [decane], the mass density in data set [1] stood at 726.31 ± 0.42 kg/m3.
Regarding `CCCCCCCCCCCC` [dodecane], the mass density in data set [1] was found to be 745.38 ± 0.42 kg/m3.
